Data as given in patent publication US20200061054A1, “USE OF DIANHYDROGALACTITOL OR ANALOGS AND DERIVATIVES IN COMBINATION WITH A P53 MODULATOR OR A PARP INHIBITOR” (Del Mar Pharmaceuticals (BC) Ltd., priority 2017, published 2020).
“Also recorded” adds a separate entry of the source.

Columns and labels:
[1] = test system: A2780 cells; experiment: 5-day MTT cytotoxic assay, combination of VAL-083 with non-DNA targeting agents (p53 modulators); format: cell-based; details: for superadditivity / synergy in combination with VAL-083 (in words): A2780 (wild-type p53), 5-day MTT, agent combined with VAL-083, FIGS. 3-5
Description: Additive effect of [drug A+drug B]=FaA+(1−FaA)FaB
where FaA or FaB=fraction of cells affected (Fa) by drug A or B alone. Data, where appropriate, are provided as Mean±SE of N=3 or greater.

[2] = test system: p53-dependent response in A2780; experiment: Immunoblots 24 hr after drug exposure, p53-dependent response; format: cell-based; details: A2780, in combination with VAL-083 (DAG), FIGS. 6A and 6B
Procedure: For Western blotting, cells were lysed in EBC buffer (50 mM Tris-HCl, pH 8.0, 120 mM NaCl, 1% NP-40, and 1 mM EDTA) supplemented with phosphatase inhibitor and protease inhibitor. Cellular proteins were separated by SDS-PAGE and transferred onto PVDF membrane. After incubation with blocking buffer for 1 h, the membranes were incubated with designated primary antibodies overnight at 4° C. Then, Membranes were washed three times for 10 min and incubated with horseradish peroxidase-conjugated anti-mouse or anti-rabbit antibodies for 1-2 h. Membranes were washed with TBST three times and developed with ECL system (Pierce) according to the manufacturer's instruction.

[3] = test system: Ovarian A2780 tumor cells; experiment: 5-day MTT cytotoxicity, VAL-083 and/or PARP inhibitor, control siRNA cells (no BRCA1 kd); format: cell-based; details: A2780, in combination with dianhydrogalactitol (VAL-083)
Procedure: (§1) Cytotoxicity was determined by MTT assay using the standard 5-day drug exposure protocol.
(§2) Ovarian A2780 tumor cells were treated with control or BRCA1 siRNA in 6-well plates and 24 hr later were washed, typsinized and aliquoted to 96-well plates. […] After 5 days, the cells are processed for the MTT assay.

[4] = test system: A2780 cells with BRCA1 knockdown; experiment: 5-day MTT cytotoxicity, VAL-083 and/or PARP inhibitor, BRCA1-siRNA treated cells; details: A2780, BRCA1 siRNA vs control siRNA, based on inspection of Fa data
Procedure: as §1, §2

[5] = test system: ovarian cancer cell lines (A2780, A2780 p53-/-, 2780CP, OVCAR10, HEY, OVCA-433); details: wild type p53, p53 knocked out and mutant p53 lines; previously shown; cited from earlier work

Nc1cc(C(F)(F)F)c(-c2cc(N3CCOCC3)nc(N3CCOCC3)n2)cn1 [BKM120]
superadditivity / synergy in combination with VAL-083 (in words) [1]: did not result in superadditive activity

Cc1ncc(Cl)cc1NCc1ccc(C(=O)N[C@@H](CC2CCCC2)C(=O)NC2CC2)s1 [GSK2830371, (S)-5-(((5-Chloro-2-methylpyridin-3-yl)amino)methyl)-N-(3-cyclopentyl-1-(cyclopropylamino)-1-oxopropan-2-yl)thiophene-2-carboxamide]
upregulation of p53-dependent response (in words) [2]: synergistic upregulation of p53-dependent response
superadditivity / synergy in combination with VAL-083 (in words) [1]: substantial superadditivity and/or synergy

Cc1sc2c(c1C)C(c1ccc(Cl)cc1)=N[C@@H](CC(=O)OC(C)(C)C)c1nnc(C)n1-2 [JQ1]
superadditivity / synergy in combination with VAL-083 (in words) [1]: did not result in superadditive activity

C=CCn1c(=O)c2cnc(Nc3ccc(N4CCN(C)CC4)cc3)nc2n1-c1cccc(C(C)(C)O)n1 [MK1775]
superadditivity / synergy in combination with VAL-083 (in words) [1]: did not result in superadditive activity

O=C(c1cc(Cc2n[nH]c(=O)c3ccccc23)ccc1F)N1CCN(C(=O)C2CC2)CC1 [Olaparib, olaparib]
superadditivity of PARP inhibitor combined with VAL-083 (in words) [3]: super-additivity

CNCc1ccc(-c2[nH]c3cc(F)cc4c3c2CCNC4=O)cc1 [Rucaparib, rucaparib]
increase in cellular sensitivity by BRCA1 knockdown (kd) [4]: ~3.0 fold

O[C@H]([C@H](O)[C@@H]1CO1)[C@H]1CO1 [VAL-083, dianhydrogalactitol]
activity in ovarian cancer cell lines (in words) [5]: active in all cell lines tested

C[C@]1(c2nc3c(C(N)=O)cccc3[nH]2)CCCN1 [Veliparib, veliparib]
superadditivity of PARP inhibitor combined with VAL-083 (in words) [3]: not as effective

COc1ccc(C2=N[C@@H](c3ccc(Cl)cc3)[C@@H](c3ccc(Cl)cc3)N2C(=O)N2CCNC(=O)C2)c(OC(C)C)c1 [nutlin-3a, 4-[[(4S,5R)-4,5-Bis(4-chlorophenyl)-2-(2-isopropoxy-4-methoxyphenyl)-4,5-dihydroimidazol-1-yl]carbonyl]piperazin-2-one]
upregulation of p53-dependent response (in words) [2]: synergistic upregulation of p53-dependent response
superadditivity / synergy in combination with VAL-083 (in words) [1]: substantial superadditivity and/or synergy; also recorded: augmented the activity of dianhydrogalactitol
combination index ([1]; A2780, nutlin-3a with VAL-083, range over ED75-ED95 (Table 3)): 0.10-0.15
